Experimental data published in ChEMBL document CHEMBL4196217, “Structure-Based Drug Design and Identification of H2O-Soluble and Low Toxic Hexacyclic Camptothecin Derivatives with Improved Efficacy in Cancer and Lethal Inflammation Models in Vivo” (J Med Chem, 2018).
pIC50: −log10 of the molar value. Active and inactive are the calls of the source. The calls are words filed in the database; no cut-off is given here.

Columns and labels:
MDA-MB-231 = experiment: Cytotoxicity in human MDA-MB-231 cells assessed as reduction in cell viability incubated for 48 hrs by MTT assay; type: functional, cell-based; settings: MDA-MB-231, 48 h
HepG2 [1] = experiment: Cytotoxicity in human HepG2 cells assessed as reduction in cell viability incubated for 48 hrs by MTT assay; type: functional, cell-based; settings: HepG2, 48 h
KB = experiment: Cytotoxicity in human KB cells assessed as reduction in cell viability incubated for 48 hrs by MTT assay; type: functional, cell-based
Bel-7402 = experiment: Cytotoxicity in human Bel7402 cells assessed as reduction in cell viability incubated for 48 hrs by MTT assay; type: functional, cell-based; settings: Bel-7402, 48 h
SMMC-7721 = experiment: Cytotoxicity in human SMMC7721 cells assessed as reduction in cell viability incubated for 48 hrs by MTT assay; type: functional, cell-based; settings: SMMC-7721, 48 h
MGC-803 = experiment: Cytotoxicity in human MGC803 cells assessed as reduction in cell viability incubated for 48 hrs by MTT assay; type: functional, cell-based; settings: MGC-803, 48 h
SK-N-SH = experiment: Cytotoxicity in human SK-N-SH cells assessed as reduction in cell viability incubated for 48 hrs by MTT assay; type: functional, cell-based
QGY-7703 = experiment: Cytotoxicity in human QGY7703 cells assessed as reduction in cell viability incubated for 48 hrs by MTT assay; type: functional, cell-based; settings: QGY-7703, 48 h
SGC-7901 = experiment: Cytotoxicity in human SGC7901 cells assessed as reduction in cell viability incubated for 48 hrs by MTT assay; type: functional, cell-based; settings: SGC-7901, 48 h
HepG2 [2] = experiment: Antitumor activity against human HepG2 cells xenografted in Balb/C mouse assessed as inhibition of tumor growth at 15 mg/kg, iv dosed once per week for 30 days followed by 2 weeks observation relative untreated control; type: functional; settings: read-out: TGI
Mus musculus [3] = experiment: Toxicity in human HepG2 cells xenografted Balb/C mouse assessed as reduction in body weight at 15 mg/kg, iv dosed once per week for 30 days followed by 2 weeks observation; type: organism-based; settings: in vivo, 336 h
Mus musculus [4] = experiment: Toxicity in human HepG2 cells xenografted Balb/C mouse assessed as reduction in body weight at 30 mg/kg, iv dosed once per week for 30 days followed by 2 weeks observation; type: organism-based; settings: in vivo, 336 h
Mus musculus [5] = experiment: Protection against LPS-induced lethal inflammation in C57BL/6 mouse model of sepsis assessed as survival at 10 mg/kg, po dosed 0.5 hrs before LPS injection followed by 10 mg/kg, po dosing at 1 hr, 4 hrs, and 8 hrs after LPS treatment; type: functional
[6] = Drug level in plasma of C57BL/6 mouse at 2 mg/kg, iv measured up to 1 hr by LC-MS/MS analysis; type: ADME, organism-based; settings: in vivo
[7] = Drug metabolism in plasma of C57BL/6 mouse assessed as (9S)-9-Ethyl-9-hydroxy-3-isopropyl-2,3-dihydro[1,3]-oxazino[5,6-f ]pyrano[3',4':6,7]indolizino[1,2-b]quinoline-1,10,13(9H,12H,15H)-trione formation at 2 mg/kg, iv measured up to 1 hr by LC-MS/MS analysis; type: ADME, organism-based; settings: in vivo
[8] = Drug metabolism in plasma of C57BL/6 mouse assessed as (S)-8-Ethyl-8-hydroxy-2-isopropyl-8H-oxazolo[4,5-f ]-pyrano[3',4':6,7]indolizino[1,2-b]quinoline-9,12(11H,14H)-dione formation at 2 mg/kg, iv measured up to 1 hr by LC-MS/MS analysis; type: ADME, organism-based; settings: in vivo
A549 = experiment: cells; settings: Homo sapiens, A549, 48 h
Description: Cytotoxicity in human A549 cells assessed as reduction in cell viability incubated for 48 hrs by MTT assay

MCF7 = experiment: cells; settings: Homo sapiens, MCF7, 48 h
Description: Cytotoxicity in human MCF7 cells assessed as reduction in cell viability incubated for 48 hrs by MTT assay

HepG2 [9] = experiment: Antitumor activity against human HepG2 cells xenografted in Balb/C mouse assessed as inhibition of tumor growth at dosed intravenously once per week for 30 days followed by 2 weeks observation; type: functional, organism-based
[10] = target: T1, DNA topoisomerase 1 (Homo sapiens) (UniProt P11387); experiment: Inhibition of human recombinant topoisomerase-1 activity at 50 uM using supercoiled pHOT-1 DNA incubated for 30 mins by ethidium bromide free agarose gel elctrophoresis method
T1 sequence (whole entry): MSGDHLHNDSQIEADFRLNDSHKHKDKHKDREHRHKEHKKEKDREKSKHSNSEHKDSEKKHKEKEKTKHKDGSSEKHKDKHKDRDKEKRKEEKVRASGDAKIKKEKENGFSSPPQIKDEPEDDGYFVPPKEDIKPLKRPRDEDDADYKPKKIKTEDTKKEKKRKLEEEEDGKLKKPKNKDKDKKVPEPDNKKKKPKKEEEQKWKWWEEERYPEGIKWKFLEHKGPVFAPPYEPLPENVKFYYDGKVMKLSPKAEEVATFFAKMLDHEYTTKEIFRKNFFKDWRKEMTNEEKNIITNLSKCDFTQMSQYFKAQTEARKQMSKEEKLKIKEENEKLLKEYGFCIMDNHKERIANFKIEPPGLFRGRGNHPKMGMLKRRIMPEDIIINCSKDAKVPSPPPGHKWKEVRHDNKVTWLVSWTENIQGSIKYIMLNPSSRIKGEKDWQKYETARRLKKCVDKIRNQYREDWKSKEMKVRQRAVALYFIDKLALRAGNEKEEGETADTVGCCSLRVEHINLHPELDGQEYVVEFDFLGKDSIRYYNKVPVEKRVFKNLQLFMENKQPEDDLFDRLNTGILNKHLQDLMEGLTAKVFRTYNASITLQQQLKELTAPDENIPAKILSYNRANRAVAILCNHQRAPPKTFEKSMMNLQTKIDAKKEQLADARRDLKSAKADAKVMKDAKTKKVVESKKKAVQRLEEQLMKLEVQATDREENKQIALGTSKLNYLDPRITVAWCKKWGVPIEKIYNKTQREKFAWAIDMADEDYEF

[11] = target: T1, DNA topoisomerase 1 (Homo sapiens); experiment: Inhibition of human recombinant topoisomerase-1 activity at 100 uM using supercoiled pHOT-1 DNA incubated for 30 mins by ethidium bromide free agarose gel elctrophoresis method
[12] = target: T1, DNA topoisomerase 1 (Homo sapiens); experiment: Inhibition of human recombinant topoisomerase-1-mediated DNA cleavage in at 50 uM using supercoiled pHOT-1 DNA incubated for 30 mins by ethidium bromide staining based agarose gel elctrophoresis method
Mus musculus [13] = experiment: Reduction in IL6 level in C57BL/6 mouse model of LPS-induced sepsis at 2 mg/kg, iv dosed 0.5 hrs before LPS injection followed by 2 mg/kg, iv dosing at 1 hr, 4 hrs, and 8 hrs after LPS treatment; type: functional, organism-based
Mus musculus [14] = experiment: Reduction in IL6 level in C57BL/6 mouse model of LPS-induced sepsis at 4 mg/kg, iv dosed 0.5 hrs before LPS injection followed by 4 mg/kg, iv dosing at 1 hr, 4 hrs, and 8 hrs after LPS treatment; type: functional, organism-based
Mus musculus [15] = experiment: Reduction in IL6 level in C57BL/6 mouse model of LPS-induced sepsis at 4 mg/kg, po dosed 0.5 hrs before LPS injection followed by 4 mg/kg, po dosing at 1 hr, 4 hrs, and 8 hrs after LPS treatment; type: functional, organism-based
Mus musculus [16] = experiment: Reduction in IL6 level in C57BL/6 mouse model of LPS-induced sepsis at 8 mg/kg, po dosed 0.5 hrs before LPS injection followed by 8 mg/kg, po dosing at 1 hr, 4 hrs, and 8 hrs after LPS treatment; type: functional, organism-based
[17] = Aqueous solubility of the compound; type: physicochemical; settings: buffer
Mus musculus [18] = experiment: Toxicity in Balb/C mouse administered as single dose measured daily for up to 28 days; type: organism-based; settings: in vivo, 672 h
Mus musculus [19] = experiment: Toxicity in Balb/C mouse administered as daily dose for 1 week measured daily for up to 28 days; type: organism-based; settings: in vivo

SMILES | pIC50 (MDA-MB-231) | pIC50 (HepG2 [1]) | pIC50 (KB) | pIC50 (Bel-7402) | pIC50 (SMMC-7721) | pIC50 (MGC-803) | pIC50 (SK-N-SH) | pIC50 (QGY-7703) | pIC50 (SGC-7901) | pIC50 (A549) | pIC50 (MCF7) | also measured
CC[C@@]1(OC(=O)CNC(=O)CCC(=O)O)C(=O)OCc2c1cc1n(c2=O)Cc2cc3c(ccc4oc(C(C)C)nc43)nc2-1 | 6.37 | 7.22 | 6.03 | 6.37 | 5.07 | 7.21 | 6.29 | < 5.00 | < 5.00 | 6.77 | < 5.00 | inhibition in vivo at 15 mg/kg (HepG2 [2]): 86%; Activity (Mus musculus [3]): Non-Toxic; Activity (Mus musculus [4]): Non-Toxic; Activity (Mus musculus [5]): 80%; Drug uptake [6]: Not Active; Drug metabolism [7]: Metabolite_Notdetected; Drug metabolism [8]: Metabolite_Notdetected
CC[C@@]1(OC(=O)CNC(=O)CCC(=O)O)C(=O)OCc2c1cc1n(c2=O)Cc2cc3c(ccc4ocnc43)nc2-1 | 6.46 | 7.26 | 6.04 | 6.56 | < 5.00 | 7.19 | 6.46 | < 5.00 | < 5.00 | 7.04 | < 5.00 | –
CC[C@@]1(OC(=O)CNC(=O)CCC(=O)O)C(=O)OCc2c1cc1n(c2=O)Cc2cc3c4c(ccc3nc2-1)OC(C(C)C)NC4=O (stereo partly specified) | – | – | – | – | – | – | – | – | – | – | – | TGI (HepG2 [9]): Dose-dependent effect; inhibition [10]: inactive; inhibition [11]: inactive; inhibition [12]: inactive; Activity (Mus musculus [13]): Active; Activity (Mus musculus [14]): Active; Activity (Mus musculus [15]): Active; Activity (Mus musculus [16]): Active
CC[C@@]1(O)C(=O)OCc2c1cc1n(c2=O)Cc2cc3c(ccc4oncc43)nc2-1 | 6.31 | 7.19 | 5.48 | 4.98 | < 5.00 | 6.29 | 6.33 | < 5.00 | < 5.00 | 5.99 | 5.94 | –
CC[C@@]1(O)C(=O)OCc2c1cc1n(c2=O)Cc2cc3c(ccc4oc(-c5ccccn5)nc43)nc2-1 | 5.70 | 7.15 | 5.69 | 5.71 | < 5.00 | 7.27 | – | < 5.00 | < 5.00 | 5.82 | 5.19 | –
CC[C@@]1(OC(=O)CNC(=O)CCC(=O)[O-])C(=O)OCc2c1cc1n(c2=O)Cc2cc3c4c(ccc3nc2-1)OC(C(C)C)NC4=O.[Na+] (stereo partly specified) | – | – | – | – | – | – | – | – | – | – | – | solubility [17]: 3400 µg/mL; MTD (Mus musculus [18]): 16 mg/kg; MTD (Mus musculus [19]): 10 mg/kg
